The source of these data is patent publication US9156783B2, “Compounds for treating proliferative disorders” (Synta Pharmaceuticals Corp., priority 2006, dated 2015).

For the assay, the system named is inducible human Hsp70. As to the kind of experiment: Hsp70 RNA induction by quantitative PCR analysis in Ramos B cells. Particulars: 500 nM compound, 6 hours; for % induction relative to Compound B: Compound B induction set to 100%; for fold induction at 0.5 µM: Homo sapiens, read-out: fold induction over DMSO. The class given is cell-based. As to the method:
The ability of the compounds of the invention to induce Hsp70 RNA induction by quantitative PCR analysis was examined. Ramos B cells were treated with 500 nM each compound for 6 hours and the RNA was isolated from the cells. Quantitative PCR was performed as described below:
Details for Quantitative PCR are as follows:
500 ng of RNA from each sample was used for cDNA synthesis using iScript cDNA Synthesis Kit (Biorad, Cat #170-8891). 1 ul of cDNA mixture was used with the iQ SYBR Green Supermix (Biorad, Cat#170-8882) to perform quantitative PCR in an iCycler machine (Biorad) using standard protocols. QPCR for each sample/time point was performed in duplicate. The following primers for inducible human Hsp70 and gapdh were used: […]
Ct values were obtained from the iCycler program and used in an equation (2^−ΔΔCT) for determining the amount of target relative to gapdh expression. This compares the relative expression of Hsp70 to the corresponding levels of gapdh in each sample. Duplicate wells were averaged. The amount of N-Malonyl-bis(N′-methyl-N′thiobenzoylhydrazide) (Compound B) induction of Hsp70 was set to 100% and the percent of induction of Hsp70 by the compounds of the invention was determined relative to 100%.

As for `COP(=O)(CP(=O)(NN(C)C(=S)c1ccccc1)OC)NN(C)C(=S)c1ccccc1` (stereo not shown) [Compound 30, Dimethyl N,N′-methylenebis(N′-methyl-N′(phenylcarbonothioyl)-phosphonohydrazidate)], the “% induction relative to Compound B” value is listed as 0.34% and the fold induction at 0.5 µM was determined as 0.85.
For the molecule `COP(=O)(CP(=O)(NN(C)C(=O)c1ccccc1)OC)NN(C)C(=O)c1ccccc1` (stereo not shown) [Compound 33], the “% induction relative to Compound B” value worked out at 0.14% and the fold induction at 0.5 µM amounted to 0.35.
For the molecule `CN(NC(=O)CC(=O)NN(C)/C(=N/S(C)(=O)=O)c1ccccc1)/C(=N/S(C)(=O)=O)c1ccccc1` [Compound 67, N′1,N′3-bis(methanesulfonimino(phenyl)methyl)-N′1,N′3-dimethylmalonohydrazide], the “% induction relative to Compound B” value is 0.75% and the fold induction at 0.5 µM came out at 1.87.
For `CN(NC(=O)CS(=O)(=O)NN(C)C(=S)c1ccccc1)C(=S)c1ccccc1` [Compound 68, N′-Methyl-2-(2-methyl-2-(phenylcarbonothioyl)hydrazinyl)-2-oxo-N′-(phenylcarbonothioyl)ethanesulfonohydrazide], the “% induction relative to Compound B” value is recorded as 11.78% and the fold induction at 0.5 µM turned out to be 29.3.
For `CNN=C(C(=O)NN(C)C(=S)c1ccccc1)C(=O)NN(C)C(=S)c1ccccc1` [Compound 71, N′1,N′3-dimethyl-2-(2-methylhydrazono)-N′1,N′3-di(phenylcarbonothioyl)-malonohydrazide], the “% induction relative to Compound B” value came to 17.59% and the fold induction at 0.5 µM came to 46.9.
